Here are results for 33 compounds from patent US10988477B2 (Merck Patent GmbH, priority 2018, dated 2021).

Chain of GCN2 kinase (Q9P2K8 whole entry): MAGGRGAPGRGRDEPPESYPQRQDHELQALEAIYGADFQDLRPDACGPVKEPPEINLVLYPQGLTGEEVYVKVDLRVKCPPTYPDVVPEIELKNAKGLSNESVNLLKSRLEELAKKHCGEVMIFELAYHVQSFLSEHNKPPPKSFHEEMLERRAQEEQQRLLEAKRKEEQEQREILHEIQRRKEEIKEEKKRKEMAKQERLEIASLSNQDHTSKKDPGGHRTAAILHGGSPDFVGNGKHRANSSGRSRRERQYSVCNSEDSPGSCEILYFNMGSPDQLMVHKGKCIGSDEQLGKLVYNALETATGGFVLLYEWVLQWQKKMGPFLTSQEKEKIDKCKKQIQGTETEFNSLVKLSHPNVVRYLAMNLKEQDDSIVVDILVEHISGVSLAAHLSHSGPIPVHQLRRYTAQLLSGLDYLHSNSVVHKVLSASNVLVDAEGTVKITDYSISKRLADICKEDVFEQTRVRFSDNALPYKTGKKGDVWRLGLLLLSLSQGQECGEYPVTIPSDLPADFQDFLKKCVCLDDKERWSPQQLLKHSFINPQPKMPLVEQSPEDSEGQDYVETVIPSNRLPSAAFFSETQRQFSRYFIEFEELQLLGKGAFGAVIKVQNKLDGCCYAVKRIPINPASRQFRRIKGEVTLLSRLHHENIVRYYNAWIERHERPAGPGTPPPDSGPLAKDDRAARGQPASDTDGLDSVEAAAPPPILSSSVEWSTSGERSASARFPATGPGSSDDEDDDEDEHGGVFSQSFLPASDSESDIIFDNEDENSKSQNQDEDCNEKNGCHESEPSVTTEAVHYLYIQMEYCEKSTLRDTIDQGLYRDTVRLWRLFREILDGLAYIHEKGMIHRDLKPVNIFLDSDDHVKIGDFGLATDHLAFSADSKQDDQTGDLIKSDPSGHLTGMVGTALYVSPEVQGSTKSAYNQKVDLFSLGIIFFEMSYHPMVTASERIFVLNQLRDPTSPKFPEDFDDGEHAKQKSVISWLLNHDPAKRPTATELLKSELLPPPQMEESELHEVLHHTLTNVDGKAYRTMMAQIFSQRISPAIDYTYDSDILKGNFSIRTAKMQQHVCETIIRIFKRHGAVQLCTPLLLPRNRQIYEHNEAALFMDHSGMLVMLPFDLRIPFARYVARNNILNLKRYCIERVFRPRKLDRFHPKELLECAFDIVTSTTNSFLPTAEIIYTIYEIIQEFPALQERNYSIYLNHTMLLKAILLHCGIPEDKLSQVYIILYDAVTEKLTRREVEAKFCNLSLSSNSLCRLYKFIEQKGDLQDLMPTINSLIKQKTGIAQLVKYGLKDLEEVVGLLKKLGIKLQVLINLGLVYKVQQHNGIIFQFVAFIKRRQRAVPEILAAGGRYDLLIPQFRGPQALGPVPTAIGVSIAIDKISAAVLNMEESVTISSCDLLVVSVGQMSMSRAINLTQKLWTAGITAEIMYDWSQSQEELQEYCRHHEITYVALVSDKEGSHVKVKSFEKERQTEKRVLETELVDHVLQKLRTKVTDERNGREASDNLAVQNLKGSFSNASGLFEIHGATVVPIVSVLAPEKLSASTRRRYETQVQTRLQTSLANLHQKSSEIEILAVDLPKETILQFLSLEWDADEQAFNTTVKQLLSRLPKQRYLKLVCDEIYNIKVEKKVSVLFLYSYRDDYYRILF

For one assay, the target named is GCN2 kinase (Homo sapiens, UniProt Q9P2K8). As to the kind of experiment: GCN2 enzyme inhibition assay (Transcreener ADP2 fluorescence polarization). Format: biochemical. Conditions: Enzyme activity for compounds of Formula IV; Ki(app), 280 μM ATP, 25° C. Here is the method:
Compounds were screened for their ability to inhibit GCN2 kinase activity using a Transcreener® ADP^2 fluorescence polarization assay that detects ADP levels (BellBrook Labs, WI). Assays were carried out in a buffer consisting of 25 mM Tris-HCl (pH 7.5), 50 mM NaCl, 10 mM MgCl2 and 1 mM DTT. Final substrate concentrations were 280 μM ATP and 200 μM peptidic substrate ([…]-OH [(RS)7], Bachem, Switzerland). Assays were carried out at 25° C. in the presence of a (typical) final concentration of 4 nM GCN2 kinase. An assay buffer containing GCN2 kinase and (RS)7 was prepared. 4.7 μL of this stock solution was placed per well of a black, low volume, 384-well microtitre plate (e.g. catalogue number 3676, Corning Inc., NY). To this was added […] of DMSO containing serial dilutions of the test compound (typical final concentrations of test compound were 0 to 8 μM). The plate was incubated for 10 minutes at 25° C. prior to the addition of 4.7 μL of ATP stock buffer to initiate the enzyme reaction. The reaction was allowed to proceed for 1 hour at 25° C., prior to the addition of 10 μL detection buffer (consisting of appropriate concentrations of ADP^2 antibody and ADP Alexa633 tracer in 1× stop and detect buffer as supplied by BellBrook Labs). […] Percentage inhibition of enzyme activity was then calculated at each compound dose. IC50 and Ki(app) (using known assay and kinetic parameters) values were calculated from percentage inhibition data using a non-linear, tight-binding algorithm. All data analysis was undertaken using the Screener® software package (Genedata, Switzerland).
(In general: Fluorescence polarisation rises when a labelled molecule tumbles more slowly, as on binding a larger partner.)
The compound `Nc1cnn(C2CCN(c3ccnc(-c4cnc5cnc(C(F)(F)F)cn45)n3)C2)c1` (stereo not drawn) [IV-478, 1-(1-(2-(6-(Trifluoromethyl)imidazo[1,2-a]pyrazin-3-yl)pyrimidin-4-yl)pyrrolidin-3-yl)-1H-pyrazol-4-amine] had a Ki of 100 to 1000 nM.

As to `C[C@H]1[C@H](c2cn[nH]c2)OCCN1c1ccnc(-c2cnc3cnc(Cl)cn23)n1` (racemic) [IV-236, Trans-4-(2-(6-Chloroimidazo[1,2-a]pyrazin-3-yl)pyrimidin-4-yl)-3-methyl-2-(1H-pyrazol-4-yl)morpholine], the Ki was 10 to 100 nM.

Consider `Clc1cn2c(-c3nccc(N4CCNC(c5cn[nH]c5)C4)n3)cnc2cn1` (single isomer, unassigned) [IV-237, 3-(4-(3-(1H-Pyrazol-4-yl)piperazin-1-yl)pyrimidin-2-yl)-6-chloroimidazo[1,2-a]pyrazine], for which the Ki is 100 to 1000 nM.

In turn, `CC1CCCN(c2ccnc(-c3cnc4cnc(C(N)=O)cn34)n2)C1` (stereo not drawn) [IV-187, 3-(4-(3-Methylpiperidin-1-yl)pyrimidin-2-yl)imidazo[1,2-a]pyrazine-6-carboxamide] displayed a Ki of 10 to 100 nM.

The compound `OCCCC1CCN(c2ccnc(-c3cnc4cnc(C(F)(F)F)cn34)n2)C1` (stereo not drawn) [IV-616, 3-(1-(2-(6-(Trifluoromethyl)imidazo[1,2-a]pyrazin-3-yl)pyrimidin-4-yl)pyrrolidin-3-yl)propan-1-ol] showed a Ki of 10 to 100 nM.

Take `CC(=O)N1CCN(c2ccnc(-c3cnc4cnc(-c5ccncc5)cn34)n2)CC1` [IV-285, 1-(4-(2-(6-(Pyridin-4-yl)imidazo[1,2-a]pyrazin-3-yl)pyrimidin-4-yl)piperazin-1-yl)ethan-1-one]: the Ki lay within 10 to 100 nM.

`N#CC1CCN(c2ccnc(-c3cnc4cnc(C(F)(F)F)cn34)n2)CC1` [IV-513, 1-(2-(6-(Trifluoromethyl)imidazo[1,2-a]pyrazin-3-yl)pyrimidin-4-yl)piperidine-4-carbonitrile] yielded a Ki of 100 to 1000 nM.

Compound `CNC(=O)C1CCN(c2ccnc(-c3cnc4cnc(C(F)(F)F)cn34)n2)C1` (stereo not drawn) [IV-625, N-Methyl-1-(2-(6-(trifluoromethyl)imidazo[1,2-a]pyrazin-3-yl)pyrimidin-4-yl)pyrrolidine-3-carboxamide] had a Ki of 100 to 1000 nM.

Turning to `O=S1(=O)CCCN1C1CCCN(c2ccnc(-c3cnc4cnc(C(F)(F)F)cn34)n2)C1` (stereo not drawn) [IV-658, 2-(1-(2-(6-(Trifluoromethyl)imidazo[1,2-a]pyrazin-3-yl)pyrimidin-4-yl)piperidin-3-yl)isothiazolidine 1,1-dioxide], the Ki was in the range of 100 to 1000 nM.

Turning to `O=S1(=O)CCC2CN(c3ccnc(-c4cnc5cnc(C(F)(F)F)cn45)n3)CC21` (stereo not drawn) [IV-570, 5-(2-(6-(Trifluoromethyl)imidazo[1,2-a]pyrazin-3-yl)pyrimidin-4-yl)hexahydro-2H-thieno[2,3-a]pyrrole 1,1-dioxide], the Ki fell in the range of 100 to 1000 nM.

With `O=C(N[C@H]1CCCN(c2ccnc(-c3cnc4cnc(C(F)(F)F)cn34)n2)C1)c1ccc(F)c(F)c1` [IV-746], the Ki is above 1000 nM.

Compound `OC1CCN(c2ccnc(-c3cnc4cnc(C(F)(F)F)cn34)n2)C1` (stereo not drawn) [IV-433, 1-(2-(6-(Trifluoromethyl)imidazo[1,2-a]pyrazin-3-yl)pyrimidin-4-yl)pyrrolidin-3-ol] returned a Ki of 100 to 1000 nM.

With `O=C1NCCC12CCCN(c1ccnc(-c3cnc4cnc(C(F)(F)F)cn34)n1)C2` (stereo not drawn) [IV-542, 7-(2-(6-(Trifluoromethyl)imidazo[1,2-a]pyrazin-3-yl)pyrimidin-4-yl)-2,7-diazaspiro[4.5]decan-1-one], the Ki is 100 to 1000 nM.

For `FC(F)(F)c1cn2c(-c3nccc(N4CCCC(c5ncccn5)C4)n3)cnc2cn1` (stereo not drawn) [IV-719], the Ki was in the range of 100 to 1000 nM.

As for `Cc1cn2c(-c3nccc(N4CCO[C@H](CNS(C)(=O)=O)C4)n3)cnc2cn1` [IV-47, (S)—N-((4-(2-(6-Methylimidazo[1,2-a]pyrazin-3-yl)pyrimidin-4-yl)morpholin-2-yl)methyl)methanesulfonamide], the Ki fell in the range of 100 to 1000 nM.

The compound `CCN1C(C)CN(c2ccnc(-c3cnc4cnc(C(F)(F)F)cn34)n2)C(C)C1c1cn[nH]c1` (single isomer, unassigned) [IV-295, 3-(4-(4-Ethyl-2,5-dimethyl-3-(1H-pyrazol-4-yl)piperazin-1-yl)pyrimidin-2-yl)-6-(trifluoromethyl)imidazo[1,2-a]pyrazine] came in with a Ki of 100 to 1000 nM.

The compound `CS(=O)(=O)NC1CCCN(c2ccnc(-c3cnc4cnc(C(N)=O)cn34)n2)C1` (stereo not drawn) [IV-250, 3-(4-(3-(Methylsulfonamido)piperidin-1-yl)pyrimidin-2-yl)imidazo[1,2-a]pyrazine-6-carboxamide] showed a Ki of 100 to 1000 nM.

In the case of `CC(=O)N1CCN(c2ccnc(-c3cnc4cnc(-c5cc[nH]n5)cn34)n2)CC1` [IV-203, 1-(4-(2-(6-(1H-Pyrazol-3-yl)imidazo[1,2-a]pyrazin-3-yl)pyrimidin-4-yl)piperazin-1-yl)ethan-1-one], the Ki fell in the range of 10 to 100 nM.

In turn, `C[C@H]1NCCN(c2ccnc(-c3cnc4cnc(C(F)(F)F)cn34)n2)[C@H]1c1cn[nH]c1` (relative stereo) [IV-208, Cis-3-(4-(3-Methyl-2-(1H-pyrazol-4-yl)piperazin-1-yl)pyrimidin-2-yl)-6-(trifluoromethyl)imidazo[1,2-a]pyrazine] had a Ki of 10 to 100 nM.

Turning to `FC(F)(F)c1cn2c(-c3nccc(N4CCC[C@H](c5c[nH]cn5)C4)n3)cnc2cn1` [IV-707], the Ki was in the range of 10 to 100 nM.

For `FC(F)(F)c1cn2c(-c3nccc(N4CCC(c5c[nH]cn5)C4)n3)cnc2cn1` (stereo not drawn) [IV-456, 3-(4-(3-(1H-Imidazol-4-yl)pyrrolidin-1-yl)pyrimidin-2-yl)-6-(trifluoromethyl)imidazo[1,2-a]pyrazine], the Ki was 100 to 1000 nM.

`CC1CCN(c2ccnc(-c3cnc4cnc(C(F)(F)F)cn34)n2)CC1` [IV-517, 3-(4-(4-Methylpiperidin-1-yl)pyrimidin-2-yl)-6-(trifluoromethyl)imidazo[1,2-a]pyrazine] showed a Ki of 100 to 1000 nM.

In turn, `FC(F)(F)c1cn2c(-c3nccc(N4CCC(n5ccnc5)C4)n3)cnc2cn1` (stereo not drawn) [IV-564, 3-(4-(3-(1H-Imidazol-1-yl)pyrrolidin-1-yl)pyrimidin-2-yl)-6-(trifluoromethyl)imidazo[1,2-a]pyrazine] showed a Ki of 100 to 1000 nM.

Turning to `CC1(C)CN(c2ccnc(-c3cnc4cnc(C(F)(F)F)cn34)n2)CCO1` [IV-531, 2,2-Dimethyl-4-(2-(6-(trifluoromethyl)imidazo[1,2-a]pyrazin-3-yl)pyrimidin-4-yl)morpholine], the Ki is 100 to 1000 nM.

The assay is the same for the next values; noted with them: compounds of Formula II; 280 μM ATP, 4 nM GCN2 kinase.
`N#CC1CCCN(c2cc(-c3cnc4ccc(C(F)(F)F)nn34)ncn2)C1` (stereo not drawn) [II-534, 1-(6-(6-(Trifluoromethyl)imidazo[1,2-b]pyridazin-3-yl)pyrimidin-4-yl)piperidine-3-carbonitrile] yielded a Ki of 10 to 1000 nM.

`Cc1noc([C@@H]2CN(c3cc(-c4cnc5ccc(C(F)(F)F)nn45)ccn3)C[C@@H](C)O2)n1` [II-742] yielded a Ki of 10 to 1000 nM.

Regarding `CC1CC(N=S(C)(=O)C2CC2)CN(c2cc(-c3cnc4ccc(C(F)F)nn34)ncn2)C1` (stereo not drawn) [II-634, Cyclopropyl((1-(6-(6-(difluoromethyl)imidazo[1,2-b]pyridazin-3-yl)pyrimidin-4-yl)-5-methylpiperidin-3-yl)imino)(methyl)-λ^6-sulfanone], the Ki was in the range of 10 to 1000 nM.

As to `C[C@H]1CN(c2cc(-c3cnc4ccc(C(F)(F)F)nn34)ccn2)C[C@@H](c2nc(C3CC3)no2)O1` [II-743], the Ki lay within 10 to 1000 nM.

`CS(=N)(=O)Cc1cccc(-c2cc(-c3cnc4ccc(C(F)F)nn34)ncn2)c1` (stereo not drawn) [II-598, (3-(6-(6-(Difluoromethyl)imidazo[1,2-b]pyridazin-3-yl)pyrimidin-4-yl)benzyl)(imino)(methyl)-λ^6-sulfanone] registered a Ki of 10 to 1000 nM.

Compound `CC1CC(CS(C)(=O)=O)C(C)N(c2cc(-c3cnc4ccc(C(F)F)nn34)ncn2)C1` (stereo not drawn) [II-587, 6-(Difluoromethyl)-3-[6-[2,5-dimethyl-3-(methylsulfonylmethyl)-1-piperidyl]pyrimidin-4-yl]imidazo[1,2-b]pyridazine] yielded a Ki below 10 nM.

For the compound `CC1CN(c2cc(-c3cnc4ccc(C(F)F)nn34)ncn2)CC(CO)O1` (stereo not drawn) [II-616, (4-(6-(6-(Difluoromethyl)imidazo[1,2-b]pyridazin-3-yl)pyrimidin-4-yl)-6-methylmorpholin-2-yl)methanol], the Ki was in the range of 10 to 1000 nM.

`CC1CC(P(C)(C)=O)CN(c2cc(-c3cnc4ccc(C(F)(F)F)nn34)ncn2)C1` (stereo not drawn) [II-713, 3-[6-(3-Dimethylphosphoryl-5-methyl-1-piperidyl)pyrimidin-4-yl]-6-(trifluoromethyl)imidazo[1,2-b]pyridazine] came in with a Ki of 10 to 1000 nM.

Still in this assay, the particulars now being: compounds of Formula V; 280 μM ATP, 4 nM GCN2 kinase.
`CP(C)(=O)C1CC(c2cn[nH]c2)CN(c2ccnc(-c3cnc4sc(C(F)(F)F)cn34)n2)C1` (racemic) [Compound V-6, 5-[4-[3-Dimethylphosphoryl-5-(1H-pyrazol-4-yl)-1-piperidyl]pyrimidin-2-yl]-2-(trifluoromethyl)imidazo[2,1-b]thiazole] came in with a Ki of 100 to 1000 nM.
